# The METLIN SMRT retention time set (Domingo-Almenara et al. 2019)
# Experiment: gradient 5% acetonitrile 3 min, to 50% in 2 min, to 85% in 15 min, held 3 min, 100 µL/min
# Settings: column: Zorbax Extend-C18 2.1 x 50 mm; eluents: water / acetonitrile, 0.1% formic acid
# How it was run: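 Mixtures of ~100 pure standards were chromatographed on a Zorbax Extend-C18 column (2.1 × 50 mm, 1.8 μm) at 100 μL/min using water and acetonitrile, each with 0.1% formic acid. Detection used a quadrupole time-of-flight mass spectrometer in positive and negative ionization mode, and data collection spanned 3 months. Retention time was obtained from adduct peaks picked computationally and each checked manually.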
row,SMILES,RP-LC retention time [s]
1,CCn1cc(-c2nc(-c3ccccc3OC)no2)c(=O)c2cc(F)ccc21,820
2,O=C(c1cccs1)N1CCc2cc(-c3ccno3)ccc21,887
3,COc1ccc(Cl)c2c(=O)c3c([nH]c12)CCN(CC(=O)Nc1cccc(C)c1)C3,627
4,O=C(CN1CC=C(c2cnn(-c3ccccc3)c2)CC1)NCc1ccco1,646
5,O=C(CCC1CCN(c2cc(NC3CC3)ncn2)CC1)N1CCN(c2ncccn2)CC1,615
6,CC(=O)Nc1onc(C)c1-c1ccc(C)c(S(=O)(=O)N2CCN(c3ccccn3)CC2)c1,628
7,CCc1nc(-c2ccc3c(c2)CCN3C(=O)Cc2cccc(F)c2)no1,1030
8,COc1cccc(CNC(=O)C2(C)CCCN(C(=O)Nc3ccc(Cl)cc3)C2)c1 (stereo not drawn),942
9,COCc1cc2nn(CC(=O)Nc3ccc(C)cc3F)c(=O)n2c(-c2ccccc2)n1,858
10,O=c1n(Cc2ccc(F)cc2Cl)nc2ccc(S(=O)(=O)N3CCCCCC3)cn12,1050
11,CCOc1ccccc1N1C(=O)CC(N2CCC(C(N)=O)CC2)C1=O (stereo not drawn),589
12,CCc1nc2cccnc2n1CCN1CCN(C(=O)Nc2ccc(C)cc2Cl)CC1,616
13,Cc1nnc(-c2ccc3ccn(CC(=O)Nc4ccc(C)c(C)c4)c3c2)o1,882
14,CCc1ccc(C(=O)N2CCN(C(=O)c3nnn4c3COC(c3ccc(C)cc3)C4)CC2)cc1 (stereo not drawn),1000
15,C1CCC(NC2=NCCO2)CC1,615
16,CN(CCc1ccc(Cl)c(Cl)c1)[C@@H]1CCCC[C@@H]1N1CCCC1,956
17,O=S(=O)(c1ccccc1Cl)N1CCCC1Cc1noc(-c2ccccc2)n1 (stereo not drawn),1110
18,O=C(Nc1cc(F)ccc1F)N1CCCC1c1nncn1-c1ccccc1 (stereo not drawn),717
19,Cc1onc(-c2ccncc2)c1C(=O)NCCN(C)C1CCCCC1,575
20,Cc1ccccc1Nc1c(-c2ccc(Cl)cc2)nc2ccc(Br)cn12,1090
21,CCc1nc2cc(N3CCC(C(=O)NCc4ccccc4)CC3)cnc2nc1CC,820
22,CCC[C@@H]1C[C@@H](C(=O)N[C@@H]([C@H]2O[C@H](SC)[C@@H](O)[C@@H](O)[C@H]2O)[C@@H](C)O)N(C)C1,584
23,CNC(=O)NCCc1c[nH]c2ncccc12,512
24,CCN1C(=O)c2cc(S(=O)(=O)NCc3ccccc3C)ccc2Oc2cccnc21,1020
25,O=C(c1ccco1)N1CCC(OCc2nc(C3CC3)no2)CC1,732

row,SMILES,RP-LC retention time [s]
1,Cc1ccc(-n2nccn2)c(C(=O)N2CCN(c3nc4cc(Cl)ccc4o3)CC[C@H]2C)c1,1080
2,CCCC(=O)Nc1ccc(-n2cnc(C(=O)N3CCSCC3)c2)nc1,671
3,COCCCNC(=O)c1ccc(-c2nc(CSc3ccccc3)c(C)o2)cc1,934
4,CCn1cc(C(=O)NCc2ccc(SC)cc2)c(=O)c2ccc(C)nc21,997
5,Cc1cc(-c2nnc(-c3ccc(F)cc3)o2)c(C)n1CC(=O)Nc1ccccc1F,959
6,Cc1cc(C)c(S(=O)(=O)N2CCCC2c2nc(-c3ccccc3)no2)cc1C (stereo not drawn),1260
7,O=C(Nc1cccc(Cl)c1)C(=O)c1c[nH]c2ccccc12,1040
8,Cc1c(C2CCN(C(=O)NCc3ccccc3)CC2)noc1N,639
9,Cc1ccc(-c2noc(-c3cccnc3N3CCN(Cc4ccccc4)CC3)n2)cc1,823
10,CCN1CCn2cc(S(=O)(=O)Nc3ccc(F)c(C)c3)cc2C1=O,742
11,CCn1c(=O)c2cc(C(=O)NCc3ccccc3C(F)(F)F)nn2c2ccccc21,1000
12,CCOC(=O)c1c(C)oc2nc(C)nc(NCc3ccc(OC)cc3)c12,1080
13,Cc1nc(OCC(=O)Nc2cccc(C(F)(F)F)c2)c2ccccc2n1,817
14,Cc1ccc(NC(=O)C2CCc3nc(N4CCCCC4)ncc3C2)cc1 (stereo not drawn),822
15,CCOc1ccccc1-n1c(C(C)N2CCN(C(=O)COc3ccc(Cl)cc3)CC2)nc2ccccc2c1=O (stereo not drawn),802
16,COc1ccc(CNC(=O)Nc2nnc(-c3ccc4c(c3)CCCC4)o2)cc1,925
17,CCOC(=O)N1CCN(C(=O)c2ccc(S(=O)(=O)NCc3cccs3)o2)CC1,729
18,Cc1ccc(F)c(NS(=O)(=O)c2cn(C(C)C)c3ncccc23)c1,912
19,CN(C(=O)C(=O)Nc1ccc2nc3n(c(=O)c2c1)CCCCC3)c1cccc(C(F)(F)F)c1,819
20,Cc1cccc(-c2noc(Cn3ncn4nc(-c5cc(C)ccc5C)cc4c3=O)n2)c1,1270
21,O=C(NCc1cc(F)ccc1F)C1CCN(c2nnc(-c3ccccc3)o2)CC1,819
22,CCn1c(=O)sc2cc(S(=O)(=O)N3CCC(C(=O)Nc4ccccc4)CC3)ccc21,878
23,Cn1cc(Cl)c(C(=O)N2CCCC2c2cccc(F)c2)n1 (stereo not drawn),807
24,Cc1ccc(OCC(=O)NC2(c3nc(-c4cccnc4)no3)CCCCC2)cc1,1010
25,O=C(Nc1cccnc1)C1CCCN(S(=O)(=O)c2cc(-c3noc(C4CCC4)n3)cs2)C1 (stereo not drawn),893

# Results, then the compound that gave them:
row,RP-LC retention time [s],SMILES
1,676,Cc1ccc(C)c(NC(=O)N2CCCC(Cn3cnc4cccnc43)C2)c1 (stereo not drawn)
2,794,FC1(F)CN[C@H](c2nc(-c3ccccc3)no2)C1
3,898,CCc1cccc(NC(=O)Cn2c(=O)nc(N3CCC(C)CC3)c3ccccc32)c1
4,648,CCN(Cc1ccc(Cl)cc1)Cc1cc(=O)n2cccc(C)c2n1
5,869,COC(=O)C(C)NC(=O)N1CCN(c2nc3ccccc3n(Cc3ccccc3)c2=O)CC1 (stereo not drawn)
6,1110,CN(C)c1cccc(-c2nc(-c3cn(-c4cccc(F)c4)nn3)no2)c1
7,674,CCOc1ccc(C2C(C(=O)N3CCCCC3)=C(C)NC3=C2C(=O)CCC3)cc1OC (stereo not drawn)
8,576,CC(C(=O)NCc1nc2ccccc2[nH]1)n1nc(-c2cccs2)ccc1=O (stereo not drawn)
9,732,COCCCNc1c(-c2ccc(C)cc2)nc2sc(C(=O)N(C)C)c(C)n12
10,853,O=C(COc1ccc(F)cc1)NCc1ccc2c(c1)OCCCO2
11,831,Cc1ccc(-n2nc(N3CCN(C(=O)CC(C)C)CC3)ccc2=O)cc1C
12,642,CCN(CC)CCNc1ncnc2c1cnn2-c1ccc(C)cc1
13,694,O=C(NCCCN1CCCC1)c1cccc(N2CCNC(c3ccccc3)C2)n1 (stereo not drawn)
14,952,CCOc1ccc(CCNC(=O)c2nc(CCS(=O)(=O)c3ccc(F)cc3)no2)cc1OCC
15,604,CCc1noc([C@@H]2CC(F)(F)CN2C(=O)c2cnc[nH]2)n1
16,982,O=C(NCCc1csc(-c2ccccc2)n1)C1CCN(S(=O)(=O)c2cccc(Cl)c2)CC1
17,975,Cc1cc(Cl)ccc1S(=O)(=O)N1CCC(OC2CCN(CC3CC3)C2=O)CC1 (stereo not drawn)
18,814,O=C(NCCc1csc(-c2ccccc2)n1)[C@H]1CCCN1C(=O)C1CCCC1
19,893,O=[N+]([O-])c1ccc(CSc2ccc(-c3ccccn3)nn2)cc1

row,RP-LC retention time [s],SMILES
1,780,CCOc1ccc(CC(=O)N2CCC3(CC2)N=C(c2ccccc2)NO3)cc1
2,771,O=C(NCCc1ccc(F)cc1)C(=O)Nc1cccc(N2CCCC2=O)c1
3,902,CC1Oc2ccc(S(=O)(=O)N3CCC(C(=O)Nc4ccc(F)c(Cl)c4)CC3)cc2NC1=O (stereo not drawn)
4,798,O=C(Cn1nc2nc(N3CCCCCC3)ccn2c1=O)Nc1cc(F)cc(F)c1
5,977,Cc1ccccc1-c1nnc(CSc2nnc(NC(=O)CCc3ccccc3)s2)o1
6,645,Cc1ccc2nc(N3CCN(C)CC3)c(-c3noc(C)n3)cc2c1
7,836,O=C(NC(c1ccccc1)c1nnc(N2CCCCC2)o1)C1CCCC1 (stereo not drawn)
8,1010,O=C(Nc1ccccc1)C1CCCN(S(=O)(=O)Cc2ccc(Cl)cc2)C1 (stereo not drawn)
9,750,O=C(CCCc1ccccc1)NCC1CN(c2ccc3c(c2)OCO3)C(=O)O1 (stereo not drawn)
10,896,CCOc1ccccc1C(=O)NC(c1ccccc1)c1nnc(N2CCCC2)o1 (stereo not drawn)
11,664,Cc1cc(C)c(S(=O)(=O)N2CCc3nn(CC(C)C)c(=O)n3CC2)c(C)c1
12,1000,Cc1cccc(S(=O)(=O)N2Cc3ccccc3CC2C(=O)NCc2ccco2)c1 (stereo not drawn)
13,852,Cc1nn(-c2ccccc2)c2c1N(CC(=O)Nc1ccc(F)cc1F)C(=O)CS2
14,858,CCOC(=O)c1c(NCc2ccc(F)cc2)c2ccc(Cl)cc2[nH]c1=O
15,630,CN(C)S(=O)(=O)Nc1ccccn1
16,933,CCOC(=O)c1ccc(N2C=C(C(=O)OC)S(=O)(=O)c3ccc(F)cc32)cc1
17,1160,COc1ccc2c(c1)C1CC(C)(O2)N(C)C(=O)C1S(=O)(=O)c1ccc(C(C)C)cc1 (stereo not drawn)
18,579,CSc1ccccc1NC(=O)C(=O)NCC1CCN(Cc2ccco2)CC1
19,1070,CCOC(=O)c1cccc(NS(=O)(=O)c2c(C)nn(-c3ccc(-c4ccccc4)nn3)c2C)c1
